Assay results as given in patent US20250043349A1, “DEORPHANIZING ODORS USING SINGLE CELL SEQUENCING” (PRESIDENT AND FELLOWS OF HARVARD COLLEGE, priority 2021, published 2025).

Key:
Olfr923 [1] = assay: Act-Seq activation score in OSNs expressing Olfr923; format: in vivo, mouse; details: acetophenone vs 2-HA
Procedure: Act-Seq (Wu et al., 2017) was performed following odor exposure to quantify odor-evoked responses in each OSN subtype (defined by their expressed OR) across the entire OR repertoire. Mice were habituated to a reversed light cycle for at least for 1 week before odor exposure, transferred to a new disposable cage with regular bedding/food and kept overnight in a satellite animal facility. On the experimental day, each mouse was first transferred to a new empty disposable cage during the dark cycle and habituated for 20 minutes. Empty cages were used to avoid any activation by odorants present within the environments in which the mice were housed. Odors were added to a piece of filter paper (100 μL of odorant) in a 35 mm petri dish and a cotton ball (200 μL of odorant) and placed in each cage. […]
The remaining 169 activation genes that were also considered as HVGs often had weak loadings across multiple GEPs. […] To summarize the effects of odor activation across this set of activation genes, the TPT-expression of these activation genes were z-scored (using means and standard deviations for these genes in the control, acetophenone, and octanal datasets, identified by subsampling equal numbers of cells across all ORs expressed in at least 6 cells across 100 restarts). […] PCA was performed on the differences in z-scored activation gene expression between control and odor conditions. […]

[2] = system: acetophenone-responsive OSN subtypes; assay: Environment switch followed by Act-Seq; format: in vivo, mouse; details: 2 weeks after switch from home cage to new odor environment
Procedure: To examine environment-dependent changes in gene expression and their effects on odor-evoked responses. Act-Seq was performed 2 weeks after environment switches. Adult mice (6-12 weeks old) were group-housed in the regular home-cage environment for at least one week before the transfer to their novel environments. Individual mice were transferred to a new disposable cage containing materials for a novel environment in the satellite animal facility. Two different novel environments were used, with each containing non-overlapping contents; Environment A (paper bedding, hay, dried flowers (such as marigold), peanuts, seeds (e.g., sunflower seeds, pumpkin seeds), puffed rice), and Environment B (garden soil, aspen shavings, coconut husks, dried fruits (e.g., berries, mango, pineapple), dried vegetables (e.g., green peas, corn, bell peppers), millet, fresh fruits (banana, apple, peach), corn flakes). Mice were singly-housed throughout the entire 2 weeks and were transferred to newly prepared environmental cages every 12 hours to minimize the contributions of any murine odors, which are likely the predominant odorants present within standard home-cage housing environments. After 2 weeks, individual mice were transferred to new empty disposable cages, and Act-Seq using acetophenone was performed as above.

Olfr923 [3] = details: Hu et al. 2020; Jiang et al. 2015; cited from earlier work

CC(=O)c1ccccc1 [acetophenone]
activation scores for OSNs expressing Olfr923 (Olfr923 [1]): higher for acetophenone than 2-HA
acetophenone-driven OSN activation scores across odor environments [2]: altered acetophenone-driven OSN activation scores in an environment-dependent manner
affinity for Olfr923 (Olfr923 [3]): high affinity
